# According to US20250136606A1, “MODULATORS OF TRPML, THEIR COMPOSITIONS AND METHODS OF USE” (Caraway Therapeutics, Inc., priority 2021, published 2025):
# Like-named read-outs stand apart in the source and are kept apart here.
# Tests used:
# Type in all cases: cell-based
# [1] = molecular target: TRPML1 (Homo sapiens, UniProt Q9GZU1); experiment: Fluorescent TRPML1 assay (Fluo4-AM calcium fluorescence in doxycycline-induced HEK-293 Trex cells)
# Method in brief: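 HEK-293 Trex cells stably expressing surface-directed mutant human TRPML1, induced with 0.5 µg/mL doxycycline overnight, were loaded with 1 µM Fluo4-AM and added to compound (6 nM–20 µM final, half-log steps, triplicate) in Ringer's with 10 mM calcium. Fluorescence ex 480/em 540; EC50 by non-linear regression versus plate controls.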
# [2] = molecular target: T1, TRPML3 (Homo sapiens, UniProt Q8TDD5); experiment: Fluorescent TRPML3 assay (performed as for TRPML1, substituting the TRPML3 subtype)
# T1 construct: expressed in transfected cells
# T1 sequence (Q8TDD5 1-553): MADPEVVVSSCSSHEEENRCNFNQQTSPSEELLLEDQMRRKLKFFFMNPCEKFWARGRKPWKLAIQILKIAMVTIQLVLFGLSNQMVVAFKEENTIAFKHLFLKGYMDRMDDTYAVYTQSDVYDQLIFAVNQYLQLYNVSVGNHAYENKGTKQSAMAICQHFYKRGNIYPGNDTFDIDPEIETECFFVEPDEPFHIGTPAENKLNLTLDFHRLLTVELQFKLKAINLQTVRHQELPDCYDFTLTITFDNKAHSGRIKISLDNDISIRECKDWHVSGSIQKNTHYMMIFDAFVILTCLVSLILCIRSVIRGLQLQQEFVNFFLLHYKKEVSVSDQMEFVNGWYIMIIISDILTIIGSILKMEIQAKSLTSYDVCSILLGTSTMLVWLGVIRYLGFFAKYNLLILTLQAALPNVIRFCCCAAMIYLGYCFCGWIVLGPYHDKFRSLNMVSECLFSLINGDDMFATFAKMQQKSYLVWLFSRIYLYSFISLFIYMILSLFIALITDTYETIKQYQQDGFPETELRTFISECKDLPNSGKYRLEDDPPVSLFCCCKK
# Method in brief: (§1)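 HEK-293 Trex cells with doxycycline-induced (0.5 ug/mL) surface-directed human TRPML subtype, loaded with 1 μM Fluo4-AM, resuspended in Ringer's with 10 mM calcium. Compounds at 20 μM to 6 nM final in half-log steps, triplicate; fluorescence ex 480/em 540; EC50 by non-linear regression versus plate controls.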
# [3] = molecular target: T2, TRPML2 (Homo sapiens, UniProt Q8IZK6); experiment: Fluorescent TRPML2 assay (performed as for TRPML1, substituting the TRPML2 subtype)
# T2 construct: expressed in transfected cells
# T2 sequence (Q8IZK6 1-566): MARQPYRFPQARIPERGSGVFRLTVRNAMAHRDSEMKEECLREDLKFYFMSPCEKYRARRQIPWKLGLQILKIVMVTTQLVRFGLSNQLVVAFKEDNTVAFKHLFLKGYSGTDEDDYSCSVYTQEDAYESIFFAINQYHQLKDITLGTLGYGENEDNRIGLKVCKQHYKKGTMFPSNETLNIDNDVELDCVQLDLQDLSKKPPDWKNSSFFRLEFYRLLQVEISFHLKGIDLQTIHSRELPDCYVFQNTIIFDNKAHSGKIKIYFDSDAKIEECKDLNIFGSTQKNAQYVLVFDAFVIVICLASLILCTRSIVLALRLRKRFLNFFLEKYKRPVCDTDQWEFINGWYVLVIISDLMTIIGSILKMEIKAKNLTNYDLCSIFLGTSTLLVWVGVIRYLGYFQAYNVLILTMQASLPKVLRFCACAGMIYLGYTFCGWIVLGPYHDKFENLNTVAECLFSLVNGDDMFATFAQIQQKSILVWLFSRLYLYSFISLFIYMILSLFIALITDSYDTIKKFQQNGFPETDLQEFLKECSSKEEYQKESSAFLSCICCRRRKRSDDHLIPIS
# Method in brief: as §1
# Sequence of TRPML1 (Q9GZU1 whole entry L15A/L16A/L577A/L578A, form open): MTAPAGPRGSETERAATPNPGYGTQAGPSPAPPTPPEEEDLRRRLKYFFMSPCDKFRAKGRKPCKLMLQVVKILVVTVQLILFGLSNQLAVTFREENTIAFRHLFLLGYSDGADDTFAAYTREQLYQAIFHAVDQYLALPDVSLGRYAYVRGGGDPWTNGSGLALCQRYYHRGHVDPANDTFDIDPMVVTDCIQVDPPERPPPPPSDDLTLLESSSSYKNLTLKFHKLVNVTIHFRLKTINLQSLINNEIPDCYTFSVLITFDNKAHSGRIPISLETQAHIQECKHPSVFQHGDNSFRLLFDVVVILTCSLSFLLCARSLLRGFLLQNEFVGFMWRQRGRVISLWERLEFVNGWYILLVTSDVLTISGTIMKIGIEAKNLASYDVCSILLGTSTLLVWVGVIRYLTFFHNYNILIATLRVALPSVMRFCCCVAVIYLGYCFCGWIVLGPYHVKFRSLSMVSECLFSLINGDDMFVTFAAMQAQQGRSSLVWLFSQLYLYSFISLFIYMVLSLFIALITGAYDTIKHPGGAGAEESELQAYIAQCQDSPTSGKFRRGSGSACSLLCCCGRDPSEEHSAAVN
Structure (SMILES),EC50 ([1]; fluorescent calcium assay),EC50 ([2]; fluorescent calcium assay),EC50 ([3]; fluorescent calcium assay),EC50 [1],EC50 [2],EC50 [3]
"Cc1nccnc1-c1cn(-c2cc(F)cc(F)c2)c2ncnc(N3CCN(C(=O)OC(C)(C)C)C[C@@H]3C)c12 [Compound 246, tert-butyl (S)-4-(7-(3,5-difluorophenyl)-5-(3-methylpyrazin-2-yl)-7H-pyrrolo[2,3-d]pyrimidin-4-yl)-3-methylpiperazine-1-carboxylate]",500 to 2000 nM,100 to 500 nM,500 to 2000 nM,,,
"C[C@H]1CN(C(=O)OC(C)(C)C)CCN1c1ncnc2c1c(N1CCCC1)cn2C1CCCCC1 [Compound 334, tert-butyl (S)-4-(7-cyclohexyl-5-(pyrrolidin-1-yl)-7H-pyrrolo[2,3-d]pyrimidin-4-yl)-3-methylpiperazine-1-carboxylate]",< 100 nM,< 100 nM,100 to 500 nM,,,
"Cc1cn(-c2cc(F)cc(F)c2)c2ncnc(N3CCN(C(=O)OC(C)(C)C)C[C@@H]3C)c12 [Compound 687, tert-butyl (S)-4-(7-(3,5-difluorophenyl)-5-methyl-7H-pyrrolo[2,3-d]pyrimidin-4-yl)-3-methylpiperazine-1-carboxylate]",,,,< 100 nM,< 100 nM,100 to 500 nM
"C[C@H]1CN(C(=O)OC(C)(C)C)CCN1c1ncnc2c1c(-c1ccccc1F)cn2-c1cnnc(C#N)c1 [Compound 448, tert-butyl (S)-4-(7-(6-cyanopyridazin-4-yl)-5-(2-fluorophenyl)-7H-pyrrolo[2,3-d]pyrimidin-4-yl)-3-methylpiperazine-1-carboxylate]",< 100 nM,< 100 nM,100 to 500 nM,,,
"C[C@@H]1CN(c2ncnc3c2c(C(F)F)cn3C2CCCC(C#N)C2)[C@@H](C)CN1C(=O)OC(C)(C)C (stereo partly drawn) [Compound 633, tert-butyl (2R,5S)-4-(7-(3-cyanocyclohexyl)-5-(difluoromethyl)-7H-pyrrolo[2,3-d]pyrimidin-4-yl)-2,5-dimethylpiperazine-1-carboxylate]",,,,500 to 2000 nM,500 to 2000 nM,> 2000 nM
"C[C@@H]1CN(c2ncnc3c2c(C(F)(F)F)cn3-c2cc(C(F)(F)F)ccn2)[C@@H](C)CN1C(=O)OC(C)(C)C [Compound 536, tert-butyl (2R,5S)-2,5-dimethyl-4-(5-(trifluoromethyl)-7-(4-(trifluoromethyl)pyridin-2-yl)-7H-pyrrolo[2,3-d]pyrimidin-4-yl)piperazine-1-carboxylate]",,,,< 100 nM,< 100 nM,< 100 nM
"C[C@@H]1CN(c2ncnc3c2c(N2CCC2)cn3-c2cccc(Cl)c2)[C@@H](C)CN1C(=O)OC(C)(C)C [Compound 490, tert-butyl (2R,5S)-4-(5-(azetidin-1-yl)-7-(3-chlorophenyl)-7H-pyrrolo[2,3-d]pyrimidin-4-yl)-2,5-dimethylpiperazine-1-carboxylate]",< 100 nM,< 100 nM,< 100 nM,,,
"C[C@H]1CN(C(=O)OC(C)(C)C)CCN1c1ncnc2c1c(N1CCC[C@@H]1CO)cn2-c1cc(F)cc(F)c1 [Compound 307, tert-butyl (S)-4-(7-(3,5-difluorophenyl)-5-((R)-2-(hydroxymethyl)pyrrolidin-1-yl)-7H-pyrrolo[2,3-d]pyrimidin-4-yl)-3-methylpiperazine-1-carboxylate]",500 to 2000 nM,< 100 nM,500 to 2000 nM,,,
"[2H]C([2H])([2H])C(OC(=O)N1C[C@H](C)N(c2ncnc3c2c(C(F)(F)F)cn3-c2cc(C#N)ccn2)C[C@@H]1C)(C([2H])([2H])[2H])C([2H])([2H])[2H] [Compound 603, 2-(methyl-d3)propan-2-yl-1,1,1,3,3,3-d6 (2S,5S)-4-(7-(4-cyanopyridin-2-yl)-5-(trifluoromethyl)-7H-pyrrolo[2,3-d]pyrimidin-4-yl)-2,5-dimethylpiperazine-1-carboxylate]",,,,< 100 nM,< 100 nM,500 to 2000 nM
"CC(C)(C)OC(=O)N1CCN(c2ncnc3c2c(C2CC2)cn3-c2cc(F)cc(F)c2)C[C@H]1C(F)F (single isomer, unassigned) [Compound 314]",500 to 2000 nM,500 to 2000 nM,> 2000 nM,,,
"C[C@H]1CN(C(=O)OC(C)(C)C)CCN1c1ncnc2c1c(-c1cnccn1)cn2-c1cccc(Cl)c1 [Compound 120, tert-butyl (S)-4-(7-(3-chlorophenyl)-5-(pyrazin-2-yl)-7H-pyrrolo[2,3-d]pyrimidin-4-yl)-3-methylpiperazine-1-carboxylate]",100 to 500 nM,< 100 nM,100 to 500 nM,,,

# Further lines, results first:
EC50 ([1]; fluorescent calcium assay),EC50 ([2]; fluorescent calcium assay),EC50 ([3]; fluorescent calcium assay),EC50 [1],EC50 [2],EC50 [3],Structure (SMILES)
< 100 nM,< 100 nM,100 to 500 nM,,,,"C[C@@H]1COCCN1c1cn(-c2cc(C#N)ccn2)c2ncnc(N3CCN(C(=O)OC(C)(C)C)C[C@@H]3C)c12 [Compound 419, tert-butyl (S)-4-(7-(4-cyanopyridin-2-yl)-5-((R)-3-methylmorpholino)-7H-pyrrolo[2,3-d]pyrimidin-4-yl)-3-methylpiperazine-1-carboxylate]"
< 100 nM,< 100 nM,500 to 2000 nM,,,,"C[C@H]1CN(C(=O)OCC(F)(F)F)CCN1c1ncnc2c1c(C1CC1)cn2-c1cc(C#N)ccn1 [Compound 368, 2,2,2-trifluoroethyl (S)-4-(7-(4-cyanopyridin-2-yl)-5-cyclopropyl-7H-pyrrolo[2,3-d]pyrimidin-4-yl)-3-methylpiperazine-1-carboxylate]"
< 100 nM,< 100 nM,< 100 nM,,,,"C[C@H]1CN(C(=O)OC(C)(C)C)CCN1c1ncnc2c1c(C1CC1)cn2-c1cccc(Cl)c1 [Compound 139, tert-butyl (S)-4-(7-(3-chlorophenyl)-5-cyclopropyl-7H-pyrrolo[2,3-d]pyrimidin-4-yl)-3-methylpiperazine-1-carboxylate]"
100 to 500 nM,100 to 500 nM,500 to 2000 nM,,,,"COc1cccc(-n2cc(C3CC3)c3c(N4CCN(C(=O)OC(C)(C)C)C[C@H]4C)ncnc32)c1 [Compound 201, tert-butyl (R)-4-(5-cyclopropyl-7-(3-methoxyphenyl)-7H-pyrrolo[2,3-d]pyrimidin-4-yl)-3-methylpiperazine-1-carboxylate]"
< 100 nM,< 100 nM,100 to 500 nM,,,,"C[C@H]1CN(C(=O)OC(C)(C)C)CCN1c1nccc2c1c(-c1ccccc1F)cn2-c1cc(C#N)ccn1 [Compound 449, tert-butyl (S)-4-(1-(4-cyanopyridin-2-yl)-3-(2-fluorophenyl)-1H-pyrrolo[3,2-c]pyridin-4-yl)-3-methylpiperazine-1-carboxylate]"
< 100 nM,< 100 nM,100 to 500 nM,,,,"C[C@H]1CN(C(=O)OC(C)(C)C)CCN1c1ncnc2c1c(C1CC1)cn2-c1ccc(F)c(F)c1 [Compound 219, tert-butyl (S)-4-(5-cyclopropyl-7-(3,4-difluorophenyl)-7H-pyrrolo[2,3-d]pyrimidin-4-yl)-3-methylpiperazine-1-carboxylate]"
,,,< 100 nM,< 100 nM,< 100 nM,"CC(C)(C)OC(=O)N1CCN(c2ncnc3c2c(C(F)(F)F)cn3-c2cc(C#N)ccn2)C2(CC2)C1 [Compound 530, tert-butyl 4-(7-(4-cyanopyridin-2-yl)-5-(trifluoromethyl)-7H-pyrrolo[2,3-d]pyrimidin-4-yl)-4,7-diazaspiro[2.5]octane-7-carboxylate]"
< 100 nM,< 100 nM,500 to 2000 nM,,,,"C[C@H]1CN(C(=O)OC(C)(C)C)CCN1c1ncnc2c1c(N(C)C1CC1)cn2-c1cc(C#N)ccn1 [Compound 442, tert-butyl (S)-4-(7-(4-cyanopyridin-2-yl)-5-(cyclopropyl(methyl)amino)-7H-pyrrolo[2,3-d]pyrimidin-4-yl)-3-methylpiperazine-1-carboxylate]"
< 100 nM,< 100 nM,100 to 500 nM,,,,"C[C@H]1CN(C(=O)OC(C)(C)C)CCN1c1ncnc2c1c(C1CC1)cn2-c1cc(Cl)cc(Cl)c1 [Compound 129, tert-butyl (S)-4-(5-cyclopropyl-7-(3,5-dichlorophenyl)-7H-pyrrolo[2,3-d]pyrimidin-4-yl)-3-methylpiperazine-1-carboxylate]"
